# Reference: US5964224A, “Method for treating amyotrophic lateral sclerosis and a therapeutic agent therefor” (priority 1997, dated 1999)
# Entries after “also recorded” stand apart in the source; their conditions may differ.
# B1: ciliary neurotrophic factor: ciliary neurotrophic factor (protein, UniProt P26441 1-200, looked up)
# Ciliary neurotrophic factor: MAFTEHSPLTPHRRDLCSRSIWLARKIRSDLTALTESYVKHQGLNKNINLDSADGMPVASTDQWSELTEAERLQENLQAYRTFHVLLARLLEDQQVHFTPTEGDFHQAIHTLLLQVAAFAYQIEELMILLEYKIPRNEADGMPINVGDGGLFEKKLWGLKVLQELSQWTVRSIHDLRFISSHQTGIPARGSHYIANNKKM
# Key:
# patients with ALS [1] = details: cited from earlier work; for beneficial effects in ALS: anecdotal or preliminary observations; for potency in improving the clinical symptoms or prolonging life: patients with ALS
# beagles [2] = details: 50.0 mg/kg/day, 6 months, cited from earlier work
# beagles [3] = details: 90 days, cited from earlier work
# mouse = details: 20 mg/kg/day i.p., organogenesis; cited from earlier work
# patients with ALS [4] = test: Clinical symptoms (gait, weakness) and duration of benefit in ALS patients; assay type: in vivo, human
# Description: (§1) A total of 24 ALS patients without respiratory failure entered the study after giving an informed consent for the protocol approved by the Institutional Review Board. Twelve of them (High Dose Group; age 45-66 years, 5 men) received the ultra-high dose (25 mg/day or 360-610 μg/kg/day, i.m.) methylcobalamin and the other 12 (Low Dose Group; age 41-66 years, 6 men) received the low dose (0.5 mg/day or […],i.m.) as a control. The two groups were matched for age, disease durations (19.6±4.1 versus 21.7±3.2 months) and initial averaged CHAP amplitudes (5.27±0.84 versus 4.48±0.91 mV). The patients were blinded as to the dose. The examiner, who was not informed of the dose, measured CMAPs immediately before starting methylcobalamin (day 1), at the end of 2 weeks of administration (day 14) and at 4 weeks after the start (day 28).
# patients with ALS [5] = test: Double-blind trial: averaged compound muscle action potential (CMAP) amplitudes in ALS patients, ultra-high versus low dose i.m.; assay type: in vivo, human
# Description: (§2) To develop a symptomatic treatment for amyotrophic lateral sclerosis, I have compared the effects of ultra-high dose and low dose (25 mg/day and 0.5 mg/day, i.m. for 14 days) of methylcobalamin on the averaged compound muscle action potential amplitudes, which serve as an index of muscle power, in a double-blind trial.
# (§3) […] were recorded bilaterally from the abductor pollicis brevis, abductor digiti minimi and abductor hallucis muscles after stimulation of the median, ulnar and tibial nerves at the wrist or at the ankle. Amplitudes were measured from the baseline to the negative peak. In each patient, the average amplitude from the six muscles (averaged CMAPs) served as an index of the number of muscle fibers innervated by spinal motoneurons. The method employed was that of Kelly et al.[Muscle Nerve 10, 471-179 (1990)] and Kimura [in Electrodiagnosis in diseases of nerve and muscle: principles and practice, 2nd edition, F. A. Davis ed.(1989), pages 85-87], the disclosures of which are incorporated herein by reference.
# as §1
# rat [6] = details: same doses as subacute, 6 months; cited from earlier work
# patient with ALS = test: Time course of averaged CMAP amplitude in a patient with ALS given 50 mg/day; assay type: in vivo, human; details: day 0 through 13, one patient
# Description: as §3
# These clinical benefits and improved CMAPs usually lasted for 1-3 months, then followed by deterioration. […] Serial changes of averaged CMAP amplitudes in low dose (0.5 mg/day i.m., n=12) group and high dose (25 mg/day i.m., n=12) group were examined. Methylcobalamin was given during day 0 through day 13. […] The time course of averaged CMAP amplitude changes in a patient with ALS who was given 50 mg/day of methylcobalamin during day 0 day through 13 was examined.
# animals = details: cited from earlier work
# [7] = intramuscular versus intravenous route; cited from earlier work
# rats = details: 0.5, 5.0 and 20.0 mg/kg/day i.p., 30 days; cited from earlier work
# rat [8] = details: 20 mg/kg/day i.p. (organogenesis) or 50 mg/kg i.v. (pre-gestation to postnatal); cited from earlier work
# [9] = degraded into hydoxycobalamin; cited from earlier work
# patients with ALS [10] = test: Adverse reactions in ALS patients (clinical trial); assay type: in vivo, human
# Description: as §2, §1
# patients with ALS [11] = test: Averaged CMAP amplitudes before and after treatment in ALS patients, 0.5 mg/day i.v., 15 mg/day i.v. and 25 mg/day i.m. groups; assay type: in vivo, human
# Description: as §3
# CMAP amplitudes were averaged in 10 patients with ALS treated with a low dose of methycobalamin (0.5 mg/day i.v. for 2 weeks). Those before the treatment and those 2 weeks after the completion of the treatment were compared.
# CMAP amplitudes were averaged in 12 patients with ALS treated with a high dose of methylcobalamin (15 mg/day i.v. for 2 weeks). Those before the treatment, those at the end of the treatment and those 2 weeks after the completion of the treatment were compared.
# CMAP amplitudes were averaged in 12 patients with ALS treated with an ultra-high dose of methylcobalamin (25 mg/day i.m. for 2 weeks). Those before the treatment, those at the end of the treatment and those 2 weeks after the completion of the treatment were compared.
# The ratio of averaged CMAP amplitudes at 2 weeks after the completion of the treatment (after 4 wks) was compared with those before the treatment.
# rabbit = details: 50 mg/kg/day, organogenesis; cited from earlier work
# [12] = High Dose Group, 25 mg/day i.m., n=12
molecule,measurement,setting,value
O=P1(N(CCCl)CCCl)NCCCO1 (stereo not shown) [cyclophosphamide],beneficial effects in ALS,patients with ALS [1],beneficial effects
COc1ccc2c(c1)[C@]13CCCC[C@@H]1[C@H](C2)N(C)CC3 [dextromethorphan],potency in improving the clinical symptoms or prolonging life,patients with ALS [1],not yet convincingly shown their potency
C/C1=C2/[N-][C@H]([C@H](CC(N)=O)[C@@]2(C)CCC(=O)NC[C@@H](C)OP(=O)([O-])O[C@H]2[C@@H](O)[C@@H](n3cnc4cc(C)c(C)cc43)O[C@@H]2CO)[C@]2(C)N=C(/C(C)=C3N=C(/C=C4N=C1[C@@H](CCC(N)=O)C\4(C)C)[C@@H](CCC(N)=O)[C@]\3(C)CC(N)=O)[C@@H](CCC(N)=O)[C@]2(C)CC(N)=O.[CH3-].[Co+3] [methylcobalamin],Kupffer cells in the liver,beagles [2],increased number of Kuppfer cells in the liver
same,"lysosomes, electron microscopy",beagles [2],increase in lysosomes
same,mesangial cells in the renal glomeruli,beagles [2],lysosomal increase in the mesangeal cells in the renal glomeruli
same,"kidney proximal tubules, light microscopy",beagles [2]; only this dose,increased eosinophilic granules in the proximal tubules in the kidney
same,epididymis findings,"beagles [3]; 50.0 mg/kg/day i.v., a dog",No changes were noted in the epidydimis
same,histological finding in the kidney,"beagles [3]; 50.0 mg/kg/day i.v., a dog",increased eosinophilic granules in the proximal tubules in the kidney
same,subacute toxicity findings,"beagles [3]; 0.5, 5.0 and 50.0 mg/kg/day i.v.",normal findings
same,"changes in the embryo, the fetus or the neonate",mouse,"no significant changes in the embryo, the fetus or the neonate"
same,subjective weakness,"patients with ALS [4]; 15-500 mg/day, i.m., s.c. or i.v. for 14 days (summary statement)",improves the subjective weakness
same,improvement in gait and weakness,patients with ALS [4]; [12],Two patients in High Dose Group noted an improvement in gait and weakness
same,duration of clinical benefits and improved CMAPs,"patients with ALS [4]; High Dose Group, 25 mg/day i.m., then followed by deterioration",1-3 months
same,improvement of clinical symptoms and objective clinical measure,"patients with ALS [4]; ultra-high dose, ALS patients",improvement of both clinical symptoms and an objective clinical measure
same,ratio of averaged CMAP amplitude at day 14 or day 28 to that at day 0,"patients with ALS [5]; 25 mg/day and 0.5 mg/day i.m., n=12 each",only the high dose group showed a significant increase in the ratio at day 28
same,change in averaged CMAP amplitude,"patients with ALS [5]; 25 mg/day i.m., at 2 weeks (day 14)",not at 2 weeks
same,"CMAP amplitude ratio between day zero and day 28, High Dose versus Low Dose Group",patients with ALS [5]; 25 mg/day versus 0.5 mg/day i.m.,significantly higher ratio than Low Dose Group
same,parameter of muscle power (CMAPs),"patients with ALS [5]; 15-500 mg/day, i.m., s.c. or i.v. for 14 days, low dose as control (summary statement)",significantly increases the parameter of muscle power
same,change in averaged CMAP amplitude,"patients with ALS [5]; low dose 0.5 mg/day i.m. for 14 days, at 2 or 4 weeks",No significant changes in CMAP amplitude
same,change in averaged CMAP amplitude,"patients with ALS [5]; low dose 0.5 mg/day i.m. for 14 days, at 2 or 4 weeks, listed as Methylcobalamin",no significant changes in CMAP amplitude
same,change in averaged CMAP amplitude,"patients with ALS [5]; ultra-high dose 25 mg/day i.m. for 14 days, at 4 weeks (day 28)",significant increase at 4 weeks; also recorded: increase of averaged CMAP amplitudes at day 28
same,change in averaged CMAP amplitude,"patients with ALS [5]; ultra-high dose 25 mg/day i.m. for 14 days, at 4 weeks (day 28), listed as Methylcobalamin",significant increase at 4 weeks
same,chronic toxicity findings,rat [6],No significant changes were found
same,time course of averaged CMAP amplitude,patient with ALS,abrupt increase of the amplitude during and after the treatment
same,major side effects,"animals; 50 mg/kg/day, animals",no major side effects have been observed
same,edema and redness of the skin,"animals; 50 mg/kg/day, on rare occasions",transient edema and redness of the skin
same,red urine,animals; disappears after discontinuing the administration,"Red urine may be found, but it soon disappears"
same,half life in the blood level,[7],longer half life in the blood level
same,"general conditions, body weight, blood and urine chemistry, organ weights and histological findings",rats,"no significant changes in the general conditions, body weight, blood and urine chemistry, organ weights and histological findings"
same,"changes in the embryo, the fetus or the neonate",rat [8],"no significant changes in the embryo, the fetus or the neonate"
same,light sensitivity,[9],"light-sensitive, and is easily degraded into hydoxycobalamin"
same,adverse reactions: elevation of serum GOT and GPT,patients with ALS [10]; [12],mild elevation of serum GOT and GPT in another
same,adverse reactions: skin rash,patients with ALS [10]; [12],skin rash in one patient
same,duration of adverse reactions (skin rash; GOT/GPT elevation),"patients with ALS [10]; High Dose Group, 25 mg/day i.m., both",about a week
same,major side effects,"patients with ALS [10]; clinical trial, 25 mg/day and 0.5 mg/day i.m. for 14 days",No major side effects were seen
same,change in averaged CMAP amplitude,"patients with ALS [11]; 0.5 mg/day i.v. for 2 weeks, 10 patients, 2 weeks after completion vs before",No significant changes were found
same,change in averaged CMAP amplitude,"patients with ALS [11]; 15 mg/day i.v. for 2 weeks, 12 patients, before, end, 2 weeks after completion","tendency toward increase of CMAPs at 2 weeks after the completion of the treatment, no statistically significant differences were found"
same,change in averaged CMAP amplitude,"patients with ALS [11]; 25 mg/day i.m. for 2 weeks, 12 patients, 2 weeks after completion",statistically significant increase of CMAPs at 2 weeks after the completion of the treatment
same,"ratio of averaged CMAP amplitudes 2 weeks after completion to before treatment, ultra-high versus low dose group","patients with ALS [11]; 25 mg/day i.m. versus 0.5 mg/day i.v., 2 weeks, FIG. 1",statistically significant difference
same,"p value, ratio of averaged CMAP amplitudes between groups","patients with ALS [11]; 25 mg/day i.m. versus 0.5 mg/day i.v., unpaired t-test",< 0.05
same,"changes in the embryo, the fetus or the neonate",rabbit,"no significant changes in the embryo, the fetus or the neonate"
Nc1nc2ccc(OC(F)(F)F)cc2s1 [riluzole],prolongation of life without tracheostomy,patients with ALS [1]; a subgroup of ALS,1-3 months
IGF-1: insulin-like growth factor-1,beneficial effects in ALS,patients with ALS [1],beneficial effects
superoxide dismutase,potency in improving the clinical symptoms or prolonging life,patients with ALS [1],not yet convincingly shown their potency
vitamin E,potency in improving the clinical symptoms or prolonging life,patients with ALS [1],not yet convincingly shown their potency
B1,potency in improving the clinical symptoms or prolonging life,patients with ALS [1],not yet convincingly shown their potency
